Measured values published in patent US6028197A, “Dibenzo[a,g]quinolizinium derivatives and the salts thereof” (Hanwha Corporation, priority 1998, dated 2000).
Read-outs that look alike come from different tables or passages of the source.

Target: T1, sterol 14-reductase (Rattus norvegicus, UniProt A0ACM8Q6X4)
T1 construct: microsome which was used as an enzyme source of sterol 14-reductase; from tissue; host or cells: liver microsomes of male Sprague-Dawley rats fed lovastatin and cholestyramine
T1 sequence (A0ACM8Q6X4 1-418): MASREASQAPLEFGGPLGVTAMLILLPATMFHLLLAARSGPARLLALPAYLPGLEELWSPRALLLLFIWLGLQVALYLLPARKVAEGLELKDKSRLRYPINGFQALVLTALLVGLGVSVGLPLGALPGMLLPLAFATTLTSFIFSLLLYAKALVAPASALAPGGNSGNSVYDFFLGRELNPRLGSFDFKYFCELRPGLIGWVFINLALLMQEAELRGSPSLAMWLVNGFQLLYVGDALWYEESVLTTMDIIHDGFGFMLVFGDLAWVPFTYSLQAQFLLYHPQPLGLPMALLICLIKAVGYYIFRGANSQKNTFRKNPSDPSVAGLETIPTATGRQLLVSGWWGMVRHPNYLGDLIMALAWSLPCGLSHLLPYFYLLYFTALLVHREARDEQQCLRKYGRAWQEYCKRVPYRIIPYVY
Assay: Inhibition of sterol 14-reductase in rat liver microsomes
Format: biochemical
Conditions: read-out: Enzyme Activity (relative in vitro activity for sterol 14-reductase, IC50 class)
Description: 20 Male Sprague-Dawley rats weighing from 150 to 250 g have been fed for 7 days with a diet containing 0.1% (w/w) Lovastatin and 5% (w/w) Cholestyramine. The animals were fasted for 12 hours before excising liver tissues and then sacrificed by decapitation at midnight. An aqueous solution containing 0.25M of sucrose was injected into the hepatic portal vein to remove all the blood within the liver, and then, the liver was excised. The liver was homogenated with two volumes of buffer solution A (0.1M potassium phosphate, 1 mM reduced glutathione, 0.5 mM EDTA, 20% (v/v) glycerol, pH 7.4) by repeating pestles over 10 times and then, centrifuged with 900×g for 5 minutes to give a supernatant. The supernatant was centrifuged with 12,000×g for 20 minutes. The supernatant obtained was ultracentrifuged with 105,000×g for 90 minutes to give a microsome which was used as an enzyme source of sterol 14-reductase. Assay for sterol 14-reductase was carried out as follows:
60 mmol of 4,4-dimethyl-5α-cholesta-7,14-dien-3β-ol and 5,6-dihydrodibenzo-[a,g]quinolizinium salts (compound no. 2) dissolved in DMSO were added to an assay mixture (total volume 1.0 ml) containing 2 mg of the microsomal protein, 2 mM of NADPH and 25 mg of glucose plus 20 units of glucose oxidase with preincubations under nitrogen at 37° C. for 4 min. unless otherwise specified to establish anaerobic condition. Buffer A (0.1M potassium phosphate buffer, pH 7.4, including 1 mM reduced glutathione, 0.5 mM EDTA, and 20% (v/v) glycerol) used for incubation had been equilibrated with nitrogen, and nitrogen was exchanged for air in all sealed reaction flasks prior to the start of incubations. Incubation of the complete mixture was carried out anaerobically in sealed flasks for 10 min at 37° C. unless otherwise indicated. Incubations were terminated by the addition of 1 ml of ethanolic KOH followed by heating under reflux for 10 min. Sterols were extracted four times with 4 ml of petroleum ether, and the solvent was evaporated to dryness under a nitrogen stream. The resulting residue was dissolved in 200-500 μl of n-hexane for quantification by GLC at high sensitive attenuation. The activity of sterol 14-reductase was determined with the amount of the substrate wherein the double bonds of 14-carbon were reduced (for the amount reduced by 1 mg of the microsome protein for 1 minute).

| IC50 | IC50 (microsomes) | Compound |
| --- | --- | --- |
| < 1 µM | – | CCCCCCCCCCCCOc1c(OC)ccc2c(CC)c3[n+](cc12)CCc1cc(OC)c(OC)cc1-3 [Compound No. 1, 5,6-dihydro-2,3-dimethoxybenzo[a]-9-dodecoxy-13-ethyl-10-methoxybenzo[g]quinolizinium chloride] |
| 10 to 100 µM | – | CCc1c2[n+](cc3c(OCc4ccc(F)cc4C(F)(F)F)c(OC)ccc13)CCc1cc(OC)c(OC)cc1-2 [Compound No. 4, 5,6-dihydro-2,3-dimethoxybenzo[a]-13-ethyl-9-[4-fluoro-2-(trifluoromethyl)benzyloxy]-10-methoxybenzo[g]-quinolizinium chloride] |
| < 1 µM | – | CCc1c2[n+](cc3c(OCc4cc(OC)c(OC)cc4[N+](=O)[O-])c(OC)ccc13)CCc1cc(OC)c(OC)cc1-2 [Compound No. 5, 5,6-dihydro-2,3-dimethoxybenzo[a]-9-(4,5-dimethoxy-2-nitro)benzyloxy-13-ethyl-10-methoxybenzo[g]-quinolizinium chloride] |
| – | < 1 µM | CCc1c2[n+](cc3c(OCc4ccc(C)c([N+](=O)[O-])c4)c(OC)ccc13)CCc1cc(OC)c(OC)cc1-2 [Compound No. 6, 5,6-dihydro-2,3-dimethoxybenzo[a]-13-ethyl-10-methoxy-9-(4-methyl-3-nitro)benzyloxybenzo[g]quinolizinium chloride] |
| 10 to 100 µM | – | CCc1c2[n+](cc3c(OCc4cc([N+](=O)[O-])ccc4OC)c(OC)ccc13)CCc1cc(OC)c(OC)cc1-2 [Compound No. 7, 5,6-dihydro-2,3-dimethoxybenzo[a]-13-ethyl-10-methoxy-9-(2-methoxy-5-nitro)benzyloxybenzo[g]quinolizinium chloride] |
| > 100 µM | – | C=Cc1ccc(COc2c(OC)ccc3c(CC)c4[n+](cc23)CCc2cc(OC)c(OC)cc2-4)cc1 [Compound No. 8, 5,6-dihydro-2,3-dimethoxybenzo[a]-13-ethyl-10-methoxy-9-(4-vinyl)benzyloxybenzo[g]quinolizinium chloride] |
| 10 to 100 µM | – | CCc1c2[n+](cc3c(OCc4ccc(F)cc4Cl)c(OC)ccc13)CCc1cc(OC)c(OC)cc1-2 [Compound No. 10, 5,6-dihydro-2,3-dimethoxybenzo[a]-9-(2-chloro-4-fluro)benzyloxy-13-ethyl-10-methoxybenzo[g]quinolizinium chloride] |
| < 1 µM | – | CCc1c2[n+](cc3c(OCc4cccc(C(F)(F)F)c4)c(OC)ccc13)CCc1cc(OC)c(OC)cc1-2 [Compound No. 11, 5,6-dihydro-2,3-dimethoxybenzo[a]-13-ethyl-10-methoxy-9-(3-trifluoromethyl)benzyloxybenzo[g]quinolizinium chloride] |
| > 100 µM | – | CCc1c2[n+](cc3c(OCc4cccc(OC)c4)c(OC)ccc13)CCc1cc(OC)c(OC)cc1-2 [Compound No. 12, 5,6-dihydro-2,3-dimethoxybenzo[a]-13-ethyl-10-methoxy-9-(3-methoxy)benzyloxybenzo[g]quinolizinium chloride] |
| < 1 µM | – | CCc1c2[n+](cc3c(OCc4c(F)c(F)c(C(F)(F)F)c(F)c4F)c(OC)ccc13)CCc1cc(OC)c(OC)cc1-2 [Compound No. 13, 5,6-dihydro-2,3-dimethoxybenzo[a]-13-ethyl-10-methoxy-9-(2,3,5,6-tetrafluoro-4-trifluoromethyl)benzyloxy-benzo[g]quinolizinium chloride] |
| > 100 µM | – | CCc1c2[n+](cc3c(OCc4ccc(OCc5ccccc5)cc4)c(OC)ccc13)CCc1cc(OC)c(OC)cc1-2 [Compound No. 14, 5,6-dihydro-2,3-dimethoxybenzo[a]-9-(4-benzyloxy)-benzyloxy-13-ethyl-10-methoxybenzo[g]quinolizinium chloride] |
| > 100 µM | – | CCc1c2[n+](cc3c(OCc4cc(C)ccc4C)c(OC)ccc13)CCc1cc(OC)c(OC)cc1-2 [Compound No. 15, 5,6-dihydro-2,3-dimethoxybenzo[a]-9-(2,5-dimethyl)benzyloxy-13-ethyl-10-methoxybenzo[g]quinolizinium chloride] |
| < 1 µM | – | CCc1c2[n+](cc3c(OCc4ccc(-c5ccccc5)cc4)c(OC)ccc13)CCc1cc(OC)c(OC)cc1-2 [Compound No. 16, 5,6-dihydro-2,3-dimethoxybenzo[a]-13-ethyl-10-methoxy-9-(4-phenyl)benzyloxybenzo[g]quinolizinium chloride] |
| < 1 µM | – | CCc1c2[n+](cc3c(OCc4ccc(Cl)nc4)c(OC)ccc13)CCc1cc(OC)c(OC)cc1-2 [Compound No. 17, 5,6-dihydro-2,3-dimethoxybenzo[a]-9-(6-chloropyridine-3-yl)methoxy-13-ethyl-10-methoxybenzo[g]quinoli-zinium chloride] |
| 10 to 100 µM | – | CCc1c2[n+](cc3c(OCc4cccc(Cl)c4)c(OC)ccc13)CCc1cc(OC)c(OC)cc1-2 [Compound No. 18, 5,6-dihydro-2,3-dimethoxybenzo[a]-9-(3-chloro)-benzyloxy-13-ethyl-10-methoxybenzo[g]quinolizinium chloride] |
| 10 to 100 µM | – | CCc1c2[n+](cc3c(OCc4ccc(Br)cc4)c(OC)ccc13)CCc1cc(OC)c(OC)cc1-2 [Compound No. 19, 5,6-dihydro-2,3-dimethoxybenzo[a]-9-(4-bromo)benzyloxy-13-ethyl-10-methoxybenzo[g]quinolizinium chloride] |
| 10 to 100 µM | – | CCc1c2[n+](cc3c(OCc4ccccc4C(F)(F)F)c(OC)ccc13)CCc1cc(OC)c(OC)cc1-2 [Compound No. 20, 5,6-dihydro-2,3-dimethoxybenzo[a]-13-ethyl-10-methoxy-9-(2-trifluoromethyl)benzyloxybenzo[g]quinolizinium chloride] |
| > 100 µM | – | CCc1c2[n+](cc3c(OCc4cccc(Oc5ccccc5)c4)c(OC)ccc13)CCc1cc(OC)c(OC)cc1-2 [Compound No. 21, 5,6-dihydro-2,3-dimethoxybenzo[a]-13-ethyl-10-methoxy-9-(3-phenoxy)benzyloxybenzo[g]quinolizinium chloride] |
| > 100 µM | – | CCc1c2[n+](cc3c(OCc4ccc(OC)cc4)c(OC)ccc13)CCc1cc(OC)c(OC)cc1-2 [Compound No. 22, 5,6-dihydro-2,3-dimethoxybenzo[a]-13-ethyl-10-methoxy-9-(4-methoxy)benzyloxybenzo[g]quinolizinium chloride] |
| 10 to 100 µM | – | CCc1c2[n+](cc3c(OCc4c(F)cccc4Cl)c(OC)ccc13)CCc1cc(OC)c(OC)cc1-2 [Compound No. 23, 5,6-dihydro-2,3-dimethoxybenzo[a]-9-(2-chloro-6-fluoro)benzyloxy-13-ethyl-10-methoxybenzo[g]quinolizinium chloride] |
| > 100 µM | – | CCc1c2[n+](cc3c(OCc4cccc([N+](=O)[O-])c4C)c(OC)ccc13)CCc1cc(OC)c(OC)cc1-2 [Compound No. 24, 5,6-dihydro-2,3-dimethoxybenzo[a]-13-ethyl-10-methoxy-9-(2-methyl-3-nitro)benzyloxybenzo[g]quinolizinium chloride] |
| > 100 µM | – | CCc1c2[n+](cc3c(OCc4cc(C)ccc4[N+](=O)[O-])c(OC)ccc13)CCc1cc(OC)c(OC)cc1-2 [Compound No. 25, 5,6-dihydro-2,3-dimethoxybenzo[a]-13-ethyl-10-methoxy-9-(5-methyl-2-nitro)benzyloxybenzo[g]quinolizinium chloride] |
| > 100 µM | – | C=CCOc1c(OC)ccc2c(CC)c3[n+](cc12)CCc1cc(OC)c(OC)cc1-3 [Compound No. 26, 5,6-dihydro-2,3-dimethoxybenzo[a]-13-ethyl-10-methoxy-9-allyloxybenzo[g]quinolizinium chloride] |
| > 100 µM | – | CCc1c2[n+](cc3c(OCc4ccc(C)cc4C)c(OC)ccc13)CCc1cc(OC)c(OC)cc1-2 [Compound No. 28, 5,6-dihydro-2,3-dimethoxybenzo[a]-9-(2,4-dimethyl)benzyloxy-13-ethyl-10-methoxybenzo[g]quinolizinium chloride] |
| 10 to 100 µM | – | CCc1c2[n+](cc3c(OCn4nnc5ccccc54)c(OC)ccc13)CCc1cc(OC)c(OC)cc1-2 [Compound No. 29, 5,6-dihydro-2,3-dimethoxybenzo[a]-9-(1H-benzo-triazol-1-yl)methoxy-13-ethyl-10-methoxybenzo[g]-quinolizinium chloride] |
| > 100 µM | – | CCc1c2[n+](cc3c(OCc4ccc(C(C)C)cc4)c(OC)ccc13)CCc1cc(OC)c(OC)cc1-2 [Compound No. 30, 5,6-dihydro-2,3-dimethoxybenzo[a]-13-ethyl-9-[4-(i-propyl)benzyloxy]-10-methoxybenzo[g]quinolizinium chloride] |
| > 100 µM | – | CCc1c2[n+](cc3c(OCc4ccc(C)cc4)c(OC)ccc13)CCc1cc(OC)c(OC)cc1-2 [Compound No. 31, 5,6-dihydro-2,3-dimethoxybenzo[a]-13-ethyl-10-methoxy-9-(4-methyl)benzyloxybenzo[g]quinolizinium chloride] |
| > 100 µM | – | CCc1c2[n+](cc3c(OCc4cccc(C)c4)c(OC)ccc13)CCc1cc(OC)c(OC)cc1-2 [Compound No. 32, 5,6-dihydro-2,3-dimethoxybenzo[a]-13-ethyl-10-methoxy-9-(3-methyl)benzyloxybenzo[g]quinolizinium chloride] |
| – | > 100 µM | CCc1c2[n+](cc3c(OCc4ccccc4C(F)(F)F)c(OC)ccc13)CCc1cc(OC)c(OC)cc1-2 [Compound No. 33, 5,6-dihydro-2,3-dimethoxybenzo[a]-13-ethyl-10-methoxy-9-(2-trifluoromethyl)benzyloxybenzo[g]quinolizinium chloride] |
